{
  "source": "patent US20260029420A1",
  "about": "“ANTI-CB2 ANTIBODIES AND THEIR USE IN A FLOW CYTOMETRY ASSAY TO MEASURE CELL SURFACE CB2 EXPRESSION” (Hoffmann-La Roche Inc., priority 2022, published 2026)",
  "key": {"[1]": {"molecular_target": "T1, CB2 (Homo sapiens, UniProt P34972)", "T1 construct": "measured in whole blood samples from nine different healthy human volunteers of working-age; endogenous in cells; host or cells: B-cells (and basophils and other leukocytes) in human whole blood", "T1 sequence (P34972 whole entry)": "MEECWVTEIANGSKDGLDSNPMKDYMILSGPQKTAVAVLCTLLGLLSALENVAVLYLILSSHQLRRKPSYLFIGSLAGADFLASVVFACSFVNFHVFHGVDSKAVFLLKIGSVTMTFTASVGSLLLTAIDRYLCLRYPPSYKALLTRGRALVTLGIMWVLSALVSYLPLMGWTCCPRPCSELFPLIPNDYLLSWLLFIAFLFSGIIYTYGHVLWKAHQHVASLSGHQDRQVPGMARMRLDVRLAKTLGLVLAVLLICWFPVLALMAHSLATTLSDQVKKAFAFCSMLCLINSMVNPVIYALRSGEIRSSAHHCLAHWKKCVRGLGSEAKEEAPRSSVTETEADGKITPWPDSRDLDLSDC", "experiment": "CB2 internalization flow cytometry assay in whole blood of diabetic patients and matched healthy participants", "assay_type": "cell-based", "source_text": "FIGS. 9A-9E: IC50 value determination for RG7774 in different cell sub-populations in whole blood of diabetic patients and matched healthy participants. Median Fluorescence intensity (MFI)±SD of CB2 surface expression in diabetic patients (open dots, dotted line) and age-matched healthy participants (closed dots, continuous line) after exposure to increasing concentrations of RG7774. Mean MFI for individual data points is based on duplicate measures FIG. 9A: B-cells (CD45^+ CD3^− CD14^− CD19^+). FIG. 9B: Basophils (CD45^+ CD3^− CD14^− CD19^− CD193^+ IgE^+). FIG. 9C: Monocytes (CD45^+ CD3^− CD14^+). FIG. 9D: T-cells (CD45^+ CD3^+ CD14^−). FIG. 9E: NK cells (CD45^+ CD3^− CD14^− CD19^− CD193^− IgE^− CD16^+ CD56^+).\nIn order to understand, the exposure-response relationship for a drug-induced CB2 internalization on blood cell populations, in particular on B-cells and Basophils, whole blood of nine different diabetic type 1 and 2 patients and eight demographically and age-matched healthy participants were treated with 8 compound concentrations in duplicates to determine the IC50 of RG7774.\nHuman whole blood from diabetic patients and age-matched healthy participants was incubated with RG7774 for 1 hour at 37° C. followed by incubation with the anti-human CB2 Ab 1/622. The expression of CB2 on the surface of the different blood cell types was analyzed using the lineage marker mix specific for B-cells, Basophils, T-cells, NK-cells and Monocytes. MFI values at 0 μM RG7774 were set as 100% baseline receptor expression for each cell type."}, "[2]": {"molecular_target": "T1, CB2", "experiment": "CB2 internalization flow cytometry assay in whole blood of working-age healthy participants", "assay_type": "cell-based", "settings": "for IC50: B-cells", "protocol": "FIG. 7: IC50 determination for CB2 internalization on B-cells in response to RG7774 in whole blood of healthy participants. Human whole blood was incubated with RG7774 for 1 hour at 37° C. followed by incubation with the anti-human CB2 antibody 1/622. The expression of CB2 on the surface of B-cells was analyzed using a lineage marker mix specific for B-cells (CD45^+ CD3^− CD14^− CD19^+) and T-cells (CD45^+ CD3^+ CD14^−). The B/T-cell CB2 MFI ratio was calculated and normalized to baseline. 0 μM was set as 100% baseline receptor expression.\nThe CB2 is member of the G-protein coupled receptor family which upon ligand (agonist) binding can respond by internalization of the receptor into the endosomal compartment of the cell, thereby removing the respective receptor form the cell surface and initiating downstream signaling effects (Calebiro, D. et al. Best Pract Res Clin Endocrinol Metab 2018:32 (2):83-91). Such changes in cell surface expression of CB2 on B-cells in response to the treatment with the CB2 agonist RG7774 were measured in whole blood samples from nine different healthy human volunteers of working-age. Whole blood samples were treated with eight compound concentrations in duplicates to determine IC50 of RG7774 using a newly developed flow cytometry assay.\nNa-Heparin whole blood samples were incubated in a 96-well plate with RG7774 for 1 hour at 37° C. in a humidified incubator with 5% CO2. Samples were harvested from the 96-well plate and 100 μl were transferred to labeled 5 ml Polystyrene Round Bottom Tubes (Becton Dickinson, Cat #352052). The unlabeled anti-CB2 antibody clone 1/622 was diluted to 50μg/ml with cell staining buffer (BioLegend, Cat #420201). 100 μl diluted anti-CB2 antibody was added to each tube and incubated for 30 minutes at 4° C. For the red blood cell lysis 10× BD PharmLyse lysing buffer (Becton Dickinson, Cat #55899) was diluted to 1× with distilled water and prewarmed to approximately 20° C. After the CB2 antibody incubation 2 ml of prewarmed 1× BD PharmLyse lysing buffer was added to each tube, mixed and incubated for 15 minutes at approximately 20° C. After the incubation, the tubes were centrifuged for 5 minutes at 250×g and 4° C. The supernatant was removed completely, cells were washed two times with cold cell staining buffer and supernatant removed completely after the centrifugation. Human FcR Blocking Reagent (Miltenyi Biotech, Cat #130-059-901) was diluted according to the package insert instructions with cold cell staining buffer. To each sample 50 μl was added, mixed and incubated for 10 minutes at 4° C. The secondary antibody Goat F(ab′)2 Anti-Mouse IgG3 PE (Southern Biotech, Cat #1102-09) was diluted 1:25 in cold cell staining buffer. To each sample 50 μl was added, mixed and incubated for 30 minutes at 4° C. in the dark. […]\nFor determination of cell surface expression of CB2 on B-cells, median fluorescent intensity (MFI) was analyzed by gating around the CD45^+ CD3^− CD14^− CD19^+ B-cells (see gating strategy in FIG. 6A to FIG. 6E) and acquiring a minimum of 2000 events in this gate (FIG. 6F). With the lineage marker mix other cell populations like T-cells (CD45^+ CD3^+ CD14^−), Monocytes (CD45^+ CD3^− CD14^+), Basophils (CD45^+ CD3^− CD14^− CD19^− CD193^+ IgE^+), NK cells (CD45^+ CD3^− CD14^− CD19^− CD193^− IgE^− CD16^+ CD56^+), Eosinophils (CD45^+ CD16^−) and Neutrophils (CD45^+ CD16^+) could be analyzed."}, "[3]": {"settings": "individual donors, DM type 1, value in parentheses = excluded outlier subject"}, "[4]": {"settings": "individual donors, matched healthy participants (HP)"}},
  "note": "Several values for one entry are separate records, joined by “and”; a condition that tells them apart may be missing. Equal entries are not always repeated. Where two headings read alike, the source gives them in different places.",
  "data": [
    {"compound": "Cn1nnnc1Cn1nnc2c(N3CC[C@H](O)C3)nc(C(C)(C)C)nc21", "note": "[RG7774, (S)-1-[5-tert-Butyl-3-(1-methyl-1H-tetrazol-5-ylmethyl)-3H-[1,2,3]triazolo [4,5-d]pyrimidin-7-yl]-pyrrolidin-3-ol]", "values": [
      {"measurement": "Emax", "setting": "[1]; Basophils, both groups on average, read-out: Emax", "value": "~60", "unit": "%"},
      {"measurement": "Emax", "setting": "[1]; DM (all) (n = 8), read-out: Mean Emax (Basophils) ± SD per diagnosis", "value": "60.4 ± 9.5", "unit": "%"},
      {"measurement": "Emax", "setting": "[1]; DM type 1 (n = 3), read-out: Mean Emax (B-cells) ± SD per diagnosis", "value": "60.5 ± 2.8", "unit": "%"},
      {"measurement": "Emax", "setting": "[1]; DM type 1 (n = 3), read-out: Mean Emax (Basophils) ± SD per diagnosis", "value": "65.9 ± 2.2", "unit": "%"},
      {"measurement": "Emax", "setting": "[1]; DM type 2 (n = 5), read-out: Mean Emax (B-cells) ± SD per diagnosis", "value": "53.6 ± 14.5", "unit": "%"},
      {"measurement": "Emax", "setting": "[1]; DM type 2 (n = 5), read-out: Mean Emax (Basophils) ± SD per diagnosis", "value": "57 ± 10.9", "unit": "%"},
      {"measurement": "Fold change vs HPs of mean IC50 (CB2 on B-cells)", "setting": "[1]; DM vs working-age healthy participants", "value": 1.8, "unit": "x"},
      {"measurement": "IC50", "setting": "[1]; Individual IC50 (B-cells), individual donors, DM type 1, value in parentheses = excluded outlier subject", "value": "225 nM and 126 nM and 1060 nM"},
      {"measurement": "IC50", "setting": "[1]; Individual IC50 (B-cells), individual donors, DM type 2", "value": "335 nM and 57.9 nM"},
      {"measurement": "IC50", "setting": "[1]; Individual IC50 (Basophils), individual donors, DM type 1, value in parentheses = excluded outlier subject", "value": "72 nM and 38.1 nM and 31.7 nM and 154 nM"},
      {"measurement": "IC50", "setting": "[1]; Individual IC50 (Basophils), individual donors, DM type 2", "value": "61 nM and 25.7 nM and 54.6 nM and 22.9 nM and 44.4 nM"},
      {"measurement": "IC50", "setting": "[1]; Individual IC50 (Basophils), individual donors, matched healthy participants (HP)", "value": "22.1 nM and 23.5 nM and 26.5 nM and 58.1 nM and 55.8 nM and 77.3 nM and 80.1 nM"},
      {"measurement": "Emax", "setting": "[1]; Matched HPs (n = 8), read-out: Mean Emax (Basophils) ± SD per diagnosis", "value": "59.3 ± 4.5", "unit": "%"},
      {"measurement": "Fold change vs HPs of mean IC50 (CB2 on B-cells)", "setting": "[1]; Matched Healthy vs working-age healthy participants", "value": 2.6, "unit": "x"},
      {"measurement": "IC50", "setting": "[1]; Mean IC50 (Basophils) ± SD per diagnosis, DM (all) (n = 8)", "value": "43.8 ± 17.5", "unit": "nM"},
      {"measurement": "IC50", "setting": "[1]; Mean IC50 (Basophils) ± SD per diagnosis, DM type 1 (n = 3)", "value": "47.2 ± 21.7", "unit": "nM"},
      {"measurement": "IC50", "setting": "[1]; Mean IC50 (Basophils) ± SD per diagnosis, DM type 2 (n = 5)", "value": "41.7 ± 17", "unit": "nM"},
      {"measurement": "IC50", "setting": "[1]; Mean IC50 (Basophils) ± SD per diagnosis, Matched HPs (n = 8)", "value": "57.2 ± 32.8", "unit": "nM"},
      {"measurement": "fold higher exposure to achieve half maximum internalization of the CB2 on B-cells", "setting": "[1]; diabetic patients and matched healthy participants relative to working-age healthy participants", "value": "2-3 fold"},
      {"measurement": "Individual Emax (B-cells)", "setting": "[1]; [3]", "value": "62.79% and (59.35) %"},
      {"measurement": "Individual Emax (Basophils)", "setting": "[1]; [3]", "value": "68.43% and 64.41% and (57.09) %"},
      {"measurement": "Emax", "setting": "[1]; individual donors, DM type 1, value in parentheses = excluded outlier subject, read-out: Individual Emax (B-cells)", "value": 62, "unit": "%"},
      {"measurement": "Emax", "setting": "[1]; individual donors, DM type 1, value in parentheses = excluded outlier subject, read-out: Individual Emax (Basophils)", "value": 64.9, "unit": "%"},
      {"measurement": "Individual Emax (B-cells)", "setting": "[1]; individual donors, DM type 2", "value": "34.08% and 74.13% and 50.35% and 58.24% and 51.25%"},
      {"measurement": "Individual Emax (Basophils)", "setting": "[1]; individual donors, DM type 2", "value": "41.64% and 62.91% and 54.19% and 70.94%"},
      {"measurement": "Individual Emax (B-cells)", "setting": "[1]; [4]", "value": "52.88% and 51.18% and 52.64% and 70.18% and 52.40% and 60.22% and 49.16% and 57.11%"},
      {"measurement": "Individual Emax (Basophils)", "setting": "[1]; [4]", "value": "64.04% and 57.73% and 54% and 58.78% and 62.7%"},
      {"measurement": "Emax", "setting": "[1]; individual donors, matched healthy participants (HP), read-out: Individual Emax (Basophils)", "value": 66.1, "unit": "%"},
      {"measurement": "reduction of the CB2 cell surface expression", "setting": "[2]; Basophils (data not shown)", "value": "can also be detected"},
      {"measurement": "Fold change vs HPs of mean IC50 (CB2 on B-cells)", "setting": "[2]; Healthy Participants (working-age), reference group", "value": 1},
      {"measurement": "IC50", "setting": "[2]; IC50, individual working-age healthy donors, whole blood 1 hour 37° C., B/T-cell CB2 MFI ratio", "value": "125 nM and 81.6 nM and 64.7 nM and 86.7 nM and 64.3 nM and 144 nM"},
      {"measurement": "IC50", "setting": "[2]; Individual IC50 values, range over donors, healthy human participants", "value": "64.3 to 144", "unit": "nM"},
      {"measurement": "reduction of the CB2 cell surface expression", "setting": "[2]; T-cells, Monocytes, NK-cells, Eosinophils and Neutrophils (data not shown)", "value": "has not been observed"}
    ]}
  ]
}
